Experimental data as given in PMC9323625, “Structure–Function Insights into the Fungal Endo-Chitinase Chit33 Depict its Mechanism on Chitinous Material” (International Journal of Molecular Sciences, 2022).

Target: T1, Chit33 (Trichoderma harzianum, UniProt Q12713, D165A/E167A)
T1 construct: gene chit33 (909 bp, 321 amino acids) expressed in Pichia pastoris GS115 from CHIT33-pIB4, secreted to the extracellular fraction; 33 kDa
T1 sequence (Q12713 20-321 D165A/E167A): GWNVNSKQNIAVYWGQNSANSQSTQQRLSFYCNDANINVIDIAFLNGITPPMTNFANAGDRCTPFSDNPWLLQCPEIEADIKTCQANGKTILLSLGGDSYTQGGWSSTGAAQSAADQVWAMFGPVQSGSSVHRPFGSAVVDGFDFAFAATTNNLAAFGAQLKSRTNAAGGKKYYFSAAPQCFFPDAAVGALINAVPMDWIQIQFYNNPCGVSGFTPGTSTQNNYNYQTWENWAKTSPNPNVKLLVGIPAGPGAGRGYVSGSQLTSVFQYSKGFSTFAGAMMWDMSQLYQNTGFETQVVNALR
Assay: X-ray crystal structure, […] Å
Type: binding
Settings: crystal soaked with 18 mM NAG4 for 30 min; active site, subsites −2 to +2; inactivated double mutant

CC(=O)N[C@H]1[C@H](O[C@H]2[C@H](O)[C@@H](NC(C)=O)C(O)O[C@@H]2CO)O[C@H](CO)[C@@H](O[C@@H]2O[C@H](CO)[C@@H](O[C@@H]3O[C@H](CO)[C@@H](O)[C@H](O)[C@H]3NC(C)=O)[C@H](O)[C@H]2NC(C)=O)[C@@H]1O (stereo partly shown) [NAG4, N,N’,N’’,N’’’-acetyl chitotetraose]
X-ray crystal structure, 1.60 Å: we determined the crystal structure of the inactive double-mutant D165A/E167A with the substrate NAG4
